These results are taken from a melting point compilation (Tetko et al.; mined from patent text by program, amines drawn as free bases though some values may be those of a salt).

The melting point is the temperature, or range, at which the solid turns liquid.

SMILES strings stand for the structures. A value given as a limit tells only on which side of the number the result lay.

The compound `CC(C)(C)OC(=O)N1CCC(Cc2c[nH]c3ccc(F)cc23)CC1` yielded a melting point of 144 to 145 °C.
With `N#Cc1cnn2c(-c3cc(Cl)ccc3Cl)ccnc12`, the melting point was 202 to 204 °C.
The same measure for `Cc1cc(Cc2ccccc2)c(NS(=O)(=O)Cc2ccccc2)c(=O)n1CC(=O)O`: above 200 °C; for `COC(=O)CCC(=O)c1ccc(OC(=S)N(C)C)cc1`: 62 to 64 °C.
The same measure for `CCCCCCCCN(CCCCCCCC)C(=O)c1cc(C(C)(C)C)c(OC(=O)c2cc(C(C)(C)C)c(O)c(C(C)(C)C)c2)c(C(C)(C)C)c1`: 145 to 146 °C.
The same measure for `CCOC(=O)c1cc(-c2cccc(OC)c2)[nH]c1N`: 96 to 97 °C.
The compound `CCCCCCCCCC(=O)NC(=O)OCc1nc(C(C)C)c(Sc2cc(Cl)cc(Cl)c2)n1Cc1ccncc1` gave a melting point of 84 to 86 °C.
The same measure for `CCOC(=O)[C@H]1C=C[C@H](c2ccccc2)n2c(=O)n(CCCl)c(=O)n21` (relative stereo): 117 to 119 °C.
To `CC1Cc2ccc(Cl)cc2C(c2ccc([N+](=O)[O-])cc2)=NN1C(N)=O` (stereo not given) belongs 223 to 234 °C; to `Cn1cc2c(C(F)(F)F)cc(Cl)nc2n1`, 124 °C.
The same measure for `COC(=O)CC(C)C(=O)c1ccc(O)cc1` (stereo not given): 89 to 91 °C.
Compound `CC(C)(C)OC(=O)N1CCC(c2nc3cc(-c4ccc(S(C)(=O)=O)cc4F)cc(F)c3o2)CC1` displayed a melting point of 155 to 158 °C.
For the compound `COc1cc2c(=O)n3cccc3cnc2cc1OCc1ccccc1`, the melting point lay within 58 to 61 °C.
The same measure for `COc1ccnc(CSc2nc3cscc3[nH]2)c1`: 172 to 175 °C.
The same measure for `O=C(O)c1cc(F)c(F)c(I)c1F`: 122 to 124 °C.
The same measure for `Cc1nc(N2CCc3ccccc3CC2)c(C#N)c(=O)n1C`: 155 to 158 °C; for `Cc1cccc(NC(=O)Cn2c3c(c4c(Cl)c(Cl)ccc42)CCN(C(=O)OC(C)(C)C)CC3)c1C`: 232 to 233 °C.
`Cc1cccc(-c2nc3cccnn3c2-c2ccnc(N[C@@H](C)c3ccccc3)c2)c1` yielded a melting point of 154 to 155 °C.
In turn, `COc1cc2c(cc1OC)CCC(C(=N)NO)=C2` had a melting point of 202 to 205 °C.
Turning to `CCOc1nn(Cc2ccc(OCc3nc(-c4ccco4)oc3C)c(OC)c2)cc1CCC(=O)O`, the melting point lay in the range of 133 to 134 °C.
To `Cc1oc(-c2ccc3ccccc3c2)nc1COc1ccc(CCCCCOS(C)(=O)=O)cc1` belongs 132 to 133 °C.
The same measure for `CC(C)(C)C(=O)SC/C(=C/c1ccccc1)C(=O)O`: 88 °C.
To `CCN(N)c1cnn(-c2cccc(C(F)(F)F)c2)c(=O)c1` belongs 108 to 110 °C; to `COc1ccc(C=O)c(Br)c1O`, 80 to 81.5 °C; to `CCOc1cc(Cc2cnc(N)nc2N)cc2c1OC(C)(C)C=C2C#CC(C)O` (stereo not given), 218 to 219 °C.
On to `COc1ccnc(CO)c1Cl`, for which the melting point fell in the range of 103 to 105 °C.
To `CC(=CC(=O)O)c1ccc(-c2ccc(F)cc2F)cc1` belongs 193 to 195 °C.
The same measure for `[N-]=[N+]=NC1CC(n2cnc3c(NC4CC4c4ccccc4)nc(N)nc32)OC1CO` (stereo not given): 65 to 70 °C; for `CC(C)(O)Cn1cnc2c(N)nc3cc(OCc4ccccc4)ccc3c21`: 254 to 257 °C.
The same measure for `O=C(C1CCCCC1)N1CC(=O)N2CCCc3ccccc3C2C1` (stereo not given): 187 to 190 °C; for `CON(CCCCn1c(C)nc2c(N)nc3ccccc3c21)S(C)(=O)=O`: 201 to 203 °C; for `CCCCNc1nc(C)nc2c1nnn2-c1ccc(C(C)C)cc1Br`: 149 to 151 °C.
In turn, `N#CC(c1cccc(F)c1)N1CCOCC1` (stereo not given) registered a melting point of 74 to 75 °C.
As to `CC1C(=NO)SCC(=O)N1C` (stereo not given), the melting point was determined as 205 °C.
To `Cc1cc(F)ccc1-c1ccc(S(=O)(=O)N2c3ccccc3CC2C(=O)NCc2ccccc2NCCC(=O)O)cc1` (stereo not given) belongs 118 to 126 °C; to `Nc1ncc2c(n1)-c1ccccc1C(c1ccc(Cl)c(Cl)c1)C2` (stereo not given), 159 to 160 °C.
The same measure for `COc1cc2c(cc1OC)CCN=C2`: 185 to 187 °C; for `COc1ccc(-c2cn3ccc(C)cc3n2)cc1`: 157 to 160 °C.
`Cc1oc(-c2ccccc2)nc1CCOc1ccc(C[C@H](NC(=O)C=Cc2ccco2)C(=O)O)cc1` registered a melting point of 199 to 201 °C.
The same measure for `CC(=O)OC1O[C@H](CC#N)[C@@H](OC(=O)c2ccccc2)[C@H]1OC(=O)c1ccccc1` (stereo not given in full): 124 to 126 °C; for `Cc1cc2c(cc1-c1csc(C=O)c1)C(C)(C)CCC2(C)C`: 144 to 146 °C; for `O=C(Cc1cccc2ccccc12)Nc1cc([C@H]2C[C@@H](NC(=O)CC3CC3)C2)[nH]n1`: 93.2 °C.
To `N#CC1=C(n2cccc2)Oc2c(ccc3ccccc23)C1c1cccc([N+](=O)[O-])c1` (stereo not given) belongs 184 to 185 °C; to `Cc1ccc(N2C(=O)C(O)=C(C(=O)c3ccc(C(F)(F)F)nc3)C2c2ccc(OC(F)(F)F)cc2)nn1` (stereo not given), 172 °C.
To `O=C(COCCCl)Nc1ccc([N+](=O)[O-])cc1` belongs 101 to 102 °C; to `CC(C)(C)c1cc(Cl)c2c(c1)-c1ccccc1P(=O)(O)O2`, 240 °C.
On to `O=C(O)c1cccc(-c2ccnc3cc(Cc4cccc(C(F)(F)F)c4)nn23)c1`, for which the melting point lay in the range of 111 to 145 °C.
The same measure for `Cn1c(=O)n(CCCC(NS(=O)(=O)c2ccc(-c3ccc(Cl)cc3)cc2)C(=O)NO)c(=O)c2ccccc21` (stereo not given): 235 °C.
`O=C(O)CCCNc1ccc2c(NC(=O)CC3CCCCC3)c(Cl)ccc2n1` registered a melting point of 248 to 250 °C.
For the compound `CCOC(=O)c1c(C)nc(O)nc1O`, the melting point fell in the range of 145 to 148 °C.
The same measure for `Cc1[nH]n(C2CCCC2)c2nc(-c3cccc4cccnc34)nc(=O)c1-2`: 242 to 244 °C; for `c1cc2c3c(cccc3c1)NN=N2`: 80 to 81 °C; for `CCC(C(=O)O)c1ccc(C(CC)C(=O)O)cc1` (stereo not given): 198 to 202 °C.
The same measure for `Cc1csc(-c2ccc(C3=NNC(=O)CC3)cc2)n1`: 266 to 267 °C; for `CCCC1NS(=O)(=O)N(CCl)C1=O` (stereo not given): 62 to 63.5 °C.
To `COc1ccccc1C1=CC(N2CCN(Cc3ccc(C)cc3)CC2)=NC12C=CC(=O)C=C2` belongs 147 °C; to `CCCCCCCCCCCCCCCCCCOc1cc(C(=O)OC)c([N+](=O)[O-])c(C(=O)OC)c1`, 65 to 68 °C; to `CC1CC2C3CCC4=CC(=O)C=CC4(C)C34OC4CC2(C)C1(O)C(=O)CO` (stereo not given), 238 to 240 °C.
Compound `CNC(=O)[C@H](CCCCNC(=O)OCc1ccccc1)NC(=O)OC(C)(C)C` came in with a melting point of 100 to 102 °C.
To `COCCNC(=O)c1cccc(-c2cccc3c(C)c(Cc4ccc(F)c(Cl)c4)sc23)c1` belongs 141 to 142 °C.
Regarding `COCc1ccc(Oc2cc(OC)c3[nH]c(C4=NCC(CC(N)=O)S4)cc3c2)cn1` (stereo not given), the melting point lay within 135 to 136 °C.
The same measure for `O=C1Nc2ccccc2C12COc1cc3c(cc12)CCCC3` (stereo not given): above 230 °C; for `CCCn1c(SC)nc2sccc2c1=O`: 94 to 96 °C.
To `Nc1nc2c(ncn2OCC/C=C\P(=O)(O)O)c(=O)[nH]1` belongs 240 to 242 °C.
For `CCCCCCCCCCCCCCCCNc1ccc(C(=O)OC2COC(c3ccccc3)OC2)cc1` (stereo not given), the melting point fell in the range of 115 to 117 °C.
The same measure for `NC1=NS(=O)N=C1NCCSCc1ccc(CN2CCCCC2)o1` (stereo not given): 161 to 163 °C; for `COc1cc(C(C)=O)ccc1OCCCN1CCC(=C(c2ccc(Cl)cc2)c2ccc(Cl)cc2)CC1`: 143 to 144 °C; for `CNC(=C[N+](=O)[O-])NCCOc1cccc(CCCN(C)C)c1`: 82 to 83.5 °C.
To `O=[N+]([O-])c1ccc2c(c1)COCC2` belongs 96 to 98 °C; to `O=C1NCCc2c(-c3ccc(Cl)c(C(F)(F)F)c3)[nH]c3cccc1c23`, 118 to 119 °C; to `O=C(NC(Cc1ccccc1)C(=O)O)c1ccc2cc(OCc3ccccc3)ccc2c1` (stereo not given), 207 °C.
`OCc1ccc(OCCCCl)cc1` showed a melting point of 65 °C.
The same measure for `C=CCCCN(C(=O)OC(C)(C)C)c1cc(OCc2ccccc2)c2ccccc2c1I`: 69 to 71 °C.
For `CCC[C@H]1CC[C@H](c2ccc(CCc3ccc(C#N)cc3)cc2)CC1`, the melting point was determined as 36 °C.
The same measure for `CCCCc1ncc(/C=C(\Cc2cccs2)C(=O)O)n1Cc1cccc(Cl)c1Cl`: 184 to 185 °C; for `CC(=O)SCCC(=O)N1c2ccc(C)cc2CCC1C(=O)O` (stereo not given): 118 to 120 °C; for `CC(=O)C(Cc1ccccc1)(N=Nc1ccc(C(O)(C(F)(F)F)C(F)(F)F)cc1)C(N)=O` (stereo not given): 128 to 133 °C.
The same measure for `CC(C)(C)OC(=O)N(CCCC(=O)NO)Cc1cc2nc(-c3cccc4[nH]ncc34)nc(N3CCOCC3)c2s1`: 149 to 152 °C.
To `CN1C(=O)CN(c2cccc(C#N)c2)NC1=O` belongs 174 to 178 °C; to `Clc1ncccc1-c1ccccn1`, 50 °C; to `O=C(O)c1ccc2c(c1)CCCS2(=O)=O`, 246 to 249 °C.
Take `O=C1C(Br)=C(Br)C(=O)c2ncccc21`: the melting point lay within 243 to 245 °C.
The same measure for `COc1nc2cccc(C(=O)O)c2n1Cc1ccc(-c2ccccc2-c2nc(=O)o[nH]2)cc1`: 189 to 190 °C; for `COc1nc2ccccc2cc1C=O`: 92 to 93 °C; for `O=C(O)c1nnn(Cc2ccccc2)n1`: 127 to 130 °C.
To `CCCCCCCCCCCCCCCCCCN(C)P1OCC2(CO1)COP(N(C)CCCCCCCCCCCCCCCCCC)OC2` (stereo not given) belongs 70 to 72 °C; to `CCCC(=O)c1cnc2c(OCCO)cccc2c1Nc1ccccc1C`, 125 to 127 °C.
To `CN(c1cccc2cc(C3=NCC4(CCN(CC#N)CC4)S3)[nH]c12)S(=O)(=O)c1cccs1` belongs 211 °C; to `Nc1nc(NCc2ccc(OCc3ccccc3)cc2)nc2nc(-c3ccco3)nn12`, 168 to 170 °C.
As to `O=S1(=O)CCC(c2ccc(N3CCN(CC(O)(Cn4cncn4)c4ccc(F)cc4F)CC3)cc2)CN1` (stereo not given), the melting point lay within 165 to 167 °C.
